Test results from ChEMBL document CHEMBL1201862, “PubChem BioAssay data set” (2004).
Active and inactive are the calls of the source.

Assays:
Aminopeptidase N = target: T1, Aminopeptidase N (Plasmodium falciparum FcB1/Columbia, UniProt O96935); assay: malaria alanyl aminopeptidase activity blockers – biochemical, fluorogenic H-Leu-NHMec substrate, 1536-well (AID 1445); set-up: species or system Plasmodium falciparum 3D7, 3D7
T1 sequence (O96935 whole entry): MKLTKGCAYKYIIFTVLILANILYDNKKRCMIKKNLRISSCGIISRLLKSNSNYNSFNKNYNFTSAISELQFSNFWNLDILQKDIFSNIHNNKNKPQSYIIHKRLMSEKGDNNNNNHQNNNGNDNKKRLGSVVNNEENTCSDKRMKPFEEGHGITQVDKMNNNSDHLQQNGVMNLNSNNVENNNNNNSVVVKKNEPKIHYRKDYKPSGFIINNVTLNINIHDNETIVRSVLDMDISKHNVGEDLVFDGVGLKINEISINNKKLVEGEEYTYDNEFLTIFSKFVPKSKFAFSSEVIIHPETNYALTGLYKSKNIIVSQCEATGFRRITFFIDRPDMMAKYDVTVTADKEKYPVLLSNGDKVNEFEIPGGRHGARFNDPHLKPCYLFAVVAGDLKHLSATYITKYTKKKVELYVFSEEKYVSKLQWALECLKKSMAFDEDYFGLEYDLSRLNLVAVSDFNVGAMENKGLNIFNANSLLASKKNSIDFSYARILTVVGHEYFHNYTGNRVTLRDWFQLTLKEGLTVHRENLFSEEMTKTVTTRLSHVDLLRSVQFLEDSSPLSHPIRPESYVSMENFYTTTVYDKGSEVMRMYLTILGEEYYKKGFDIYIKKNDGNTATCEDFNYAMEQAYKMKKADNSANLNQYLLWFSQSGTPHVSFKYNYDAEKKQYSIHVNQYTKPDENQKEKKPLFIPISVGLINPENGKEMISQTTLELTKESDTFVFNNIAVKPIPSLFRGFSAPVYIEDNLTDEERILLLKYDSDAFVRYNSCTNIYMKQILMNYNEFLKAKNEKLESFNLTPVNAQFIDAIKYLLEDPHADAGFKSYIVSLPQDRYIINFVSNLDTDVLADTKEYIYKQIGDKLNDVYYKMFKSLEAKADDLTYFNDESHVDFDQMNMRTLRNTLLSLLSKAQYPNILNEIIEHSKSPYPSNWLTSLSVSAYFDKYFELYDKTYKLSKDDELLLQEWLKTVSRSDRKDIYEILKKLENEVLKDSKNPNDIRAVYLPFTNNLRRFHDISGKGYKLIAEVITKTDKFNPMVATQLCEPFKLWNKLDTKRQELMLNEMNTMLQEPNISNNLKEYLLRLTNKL

Large T antigen = Large T antigen (Simian virus 40, UniProt P03070); assay type: functional, Betapolyomavirus macacae;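 also: Confirmatory-stage PubChem screen for compounds that inhibit SV40 T antigen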
Leucine aminopeptidase = target: T2, Leucine aminopeptidase (Plasmodium falciparum 3D7, UniProt Q8IL11); assay: P. falciparum M17LAP inhibitors, primary screen, biochemical, fluorogenic H-Leu-NHMec substrate, 1536-well (AID 1619); assay type: functional
T2 sequence (Q8IL11 whole entry): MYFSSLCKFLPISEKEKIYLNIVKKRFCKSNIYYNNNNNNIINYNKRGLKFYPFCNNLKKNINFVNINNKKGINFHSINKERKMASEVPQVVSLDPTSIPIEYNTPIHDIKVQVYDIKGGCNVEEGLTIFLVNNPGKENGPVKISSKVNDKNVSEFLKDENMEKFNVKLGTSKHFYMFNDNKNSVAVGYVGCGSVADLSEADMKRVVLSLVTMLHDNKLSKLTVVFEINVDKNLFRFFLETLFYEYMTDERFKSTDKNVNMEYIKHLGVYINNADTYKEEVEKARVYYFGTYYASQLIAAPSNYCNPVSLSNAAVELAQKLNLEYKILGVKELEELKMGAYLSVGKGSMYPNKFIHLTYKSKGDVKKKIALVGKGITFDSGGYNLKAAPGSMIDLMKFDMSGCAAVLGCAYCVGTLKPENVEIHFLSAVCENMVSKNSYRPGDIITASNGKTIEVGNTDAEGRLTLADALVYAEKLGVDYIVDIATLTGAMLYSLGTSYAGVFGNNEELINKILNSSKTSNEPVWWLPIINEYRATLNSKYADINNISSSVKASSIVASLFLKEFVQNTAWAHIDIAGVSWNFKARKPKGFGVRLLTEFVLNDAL

Procathepsin L = Procathepsin L (Homo sapiens, UniProt P07711)
Aspartyl aminopeptidase = target: T3, Aspartyl aminopeptidase (Plasmodium falciparum 3D7, UniProt Q8I2J3)
T3 sequence (Q8I2J3 whole entry): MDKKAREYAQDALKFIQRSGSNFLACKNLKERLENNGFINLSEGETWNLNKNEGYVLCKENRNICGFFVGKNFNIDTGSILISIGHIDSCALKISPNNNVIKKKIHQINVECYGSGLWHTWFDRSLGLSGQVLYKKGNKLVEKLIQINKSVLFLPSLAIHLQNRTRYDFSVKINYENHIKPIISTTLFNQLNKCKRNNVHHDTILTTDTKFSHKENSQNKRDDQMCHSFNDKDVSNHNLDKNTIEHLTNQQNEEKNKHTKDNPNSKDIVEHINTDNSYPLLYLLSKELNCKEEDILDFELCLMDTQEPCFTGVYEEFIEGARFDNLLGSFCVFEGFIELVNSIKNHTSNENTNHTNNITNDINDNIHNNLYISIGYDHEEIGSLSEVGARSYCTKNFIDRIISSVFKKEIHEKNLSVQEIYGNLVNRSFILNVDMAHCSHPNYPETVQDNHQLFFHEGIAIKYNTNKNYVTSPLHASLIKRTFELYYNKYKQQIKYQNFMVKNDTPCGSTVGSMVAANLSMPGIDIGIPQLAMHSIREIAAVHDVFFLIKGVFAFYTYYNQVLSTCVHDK

[1] = target: T4, Mannose-6-phosphate isomerase (Homo sapiens, UniProt P34949); assay: MPI inhibition at elevated mannose 6-phosphate – biochemical, fluorescence intensity, high mannose 6-phosphate, primary screen (AID 1220)
T4 sequence (P34949 whole entry): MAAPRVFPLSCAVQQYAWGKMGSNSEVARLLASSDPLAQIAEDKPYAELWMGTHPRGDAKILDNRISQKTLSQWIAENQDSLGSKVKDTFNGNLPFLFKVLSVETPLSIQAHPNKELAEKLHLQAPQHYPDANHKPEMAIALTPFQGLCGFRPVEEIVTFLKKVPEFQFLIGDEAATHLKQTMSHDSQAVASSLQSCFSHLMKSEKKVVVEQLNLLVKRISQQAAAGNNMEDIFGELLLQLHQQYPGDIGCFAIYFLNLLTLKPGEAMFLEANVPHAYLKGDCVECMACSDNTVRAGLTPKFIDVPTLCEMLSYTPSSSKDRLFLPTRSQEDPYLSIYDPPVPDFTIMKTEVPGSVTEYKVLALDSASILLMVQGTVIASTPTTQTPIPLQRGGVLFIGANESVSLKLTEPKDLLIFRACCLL

[2] = target: Glucose-6-phosphate 1-dehydrogenase (Homo sapiens, UniProt P11413); assay: inhibition of Homo sapiens G6PD, dose series – biochemical, fluorescence, selectivity assay for P. falciparum G6PD inhibitor project, dose response (AID 504792); assay type: functional
[3] = fluconazole-exposed Candida albicans growth modulators – fluorescence, retest, confirmation (AID 2467); assay type: functional, cell-based
[4] = NIH-3T3 fibroblast cytotoxicity, dose response, cytotoxicity control, cell-based, fluorescence, Alamar Blue, secondary assay (AID 2327); assay type: functional;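 also: NIH-3T3 mouse fibroblasts cultured with fluconazole at 8 µg/mL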
[5] = target: T5, Histone-lysine N-methyltransferase NSD2 (Homo sapiens, UniProt O96028); assay type: biochemical
T5 sequence (O96028 whole entry): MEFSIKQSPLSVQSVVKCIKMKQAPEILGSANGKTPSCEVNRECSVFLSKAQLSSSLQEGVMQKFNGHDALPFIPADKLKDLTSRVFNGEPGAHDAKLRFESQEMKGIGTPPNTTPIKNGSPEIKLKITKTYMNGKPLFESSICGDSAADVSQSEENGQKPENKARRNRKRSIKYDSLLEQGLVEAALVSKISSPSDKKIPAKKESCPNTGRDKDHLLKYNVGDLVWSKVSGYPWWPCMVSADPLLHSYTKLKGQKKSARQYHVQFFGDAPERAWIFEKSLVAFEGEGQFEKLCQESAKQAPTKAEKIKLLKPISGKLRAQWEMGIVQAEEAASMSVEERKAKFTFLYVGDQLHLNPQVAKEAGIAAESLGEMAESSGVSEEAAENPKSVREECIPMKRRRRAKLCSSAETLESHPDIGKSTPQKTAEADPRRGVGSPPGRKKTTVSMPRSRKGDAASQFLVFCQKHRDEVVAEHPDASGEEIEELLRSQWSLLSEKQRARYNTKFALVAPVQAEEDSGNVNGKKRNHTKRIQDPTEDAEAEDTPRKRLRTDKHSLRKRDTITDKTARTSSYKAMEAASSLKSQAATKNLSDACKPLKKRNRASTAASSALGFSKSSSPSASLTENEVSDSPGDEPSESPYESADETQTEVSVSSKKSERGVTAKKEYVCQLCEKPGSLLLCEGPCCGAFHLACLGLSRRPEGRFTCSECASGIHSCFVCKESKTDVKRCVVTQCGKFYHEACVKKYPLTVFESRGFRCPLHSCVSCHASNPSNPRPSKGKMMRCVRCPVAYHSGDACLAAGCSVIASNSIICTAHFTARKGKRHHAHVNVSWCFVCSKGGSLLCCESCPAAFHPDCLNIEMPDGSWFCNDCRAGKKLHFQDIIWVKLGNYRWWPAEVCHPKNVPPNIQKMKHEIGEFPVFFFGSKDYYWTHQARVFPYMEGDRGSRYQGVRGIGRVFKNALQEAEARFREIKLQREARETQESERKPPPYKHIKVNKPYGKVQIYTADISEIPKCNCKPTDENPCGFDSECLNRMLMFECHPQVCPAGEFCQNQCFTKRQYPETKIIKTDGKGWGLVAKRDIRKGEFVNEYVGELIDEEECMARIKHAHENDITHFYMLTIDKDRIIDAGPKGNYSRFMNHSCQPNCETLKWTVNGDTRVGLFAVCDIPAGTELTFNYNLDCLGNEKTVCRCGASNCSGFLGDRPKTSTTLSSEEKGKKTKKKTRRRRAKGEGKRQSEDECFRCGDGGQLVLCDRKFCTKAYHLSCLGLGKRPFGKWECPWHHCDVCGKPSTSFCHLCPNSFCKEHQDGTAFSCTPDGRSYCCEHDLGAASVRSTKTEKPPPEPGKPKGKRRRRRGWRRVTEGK

Chain of Procathepsin L (P07711 whole entry): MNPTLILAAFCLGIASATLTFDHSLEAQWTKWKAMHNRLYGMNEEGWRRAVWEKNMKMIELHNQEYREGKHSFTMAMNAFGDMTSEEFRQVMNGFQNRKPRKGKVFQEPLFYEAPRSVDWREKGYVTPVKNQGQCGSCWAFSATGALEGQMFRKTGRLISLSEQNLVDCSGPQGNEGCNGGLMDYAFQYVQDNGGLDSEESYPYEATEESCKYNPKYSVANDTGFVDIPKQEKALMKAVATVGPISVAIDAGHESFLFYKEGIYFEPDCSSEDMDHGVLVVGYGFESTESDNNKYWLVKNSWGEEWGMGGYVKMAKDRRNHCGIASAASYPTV
Chain of Glucose-6-phosphate 1-dehydrogenase (P11413 whole entry): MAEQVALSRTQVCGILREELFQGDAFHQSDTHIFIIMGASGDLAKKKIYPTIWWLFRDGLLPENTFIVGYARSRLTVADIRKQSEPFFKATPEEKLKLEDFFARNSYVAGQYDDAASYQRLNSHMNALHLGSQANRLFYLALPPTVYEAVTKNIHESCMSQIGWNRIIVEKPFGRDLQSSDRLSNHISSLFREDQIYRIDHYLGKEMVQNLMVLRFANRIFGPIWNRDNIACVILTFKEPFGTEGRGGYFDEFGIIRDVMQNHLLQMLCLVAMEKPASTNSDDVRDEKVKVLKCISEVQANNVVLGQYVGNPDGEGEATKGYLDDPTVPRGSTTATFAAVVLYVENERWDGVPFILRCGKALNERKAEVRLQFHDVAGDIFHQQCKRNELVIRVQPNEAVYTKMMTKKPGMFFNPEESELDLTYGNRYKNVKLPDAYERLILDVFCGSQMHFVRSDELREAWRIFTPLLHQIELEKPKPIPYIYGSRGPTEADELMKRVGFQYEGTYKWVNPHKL
Chain of Large T antigen (P03070 whole entry): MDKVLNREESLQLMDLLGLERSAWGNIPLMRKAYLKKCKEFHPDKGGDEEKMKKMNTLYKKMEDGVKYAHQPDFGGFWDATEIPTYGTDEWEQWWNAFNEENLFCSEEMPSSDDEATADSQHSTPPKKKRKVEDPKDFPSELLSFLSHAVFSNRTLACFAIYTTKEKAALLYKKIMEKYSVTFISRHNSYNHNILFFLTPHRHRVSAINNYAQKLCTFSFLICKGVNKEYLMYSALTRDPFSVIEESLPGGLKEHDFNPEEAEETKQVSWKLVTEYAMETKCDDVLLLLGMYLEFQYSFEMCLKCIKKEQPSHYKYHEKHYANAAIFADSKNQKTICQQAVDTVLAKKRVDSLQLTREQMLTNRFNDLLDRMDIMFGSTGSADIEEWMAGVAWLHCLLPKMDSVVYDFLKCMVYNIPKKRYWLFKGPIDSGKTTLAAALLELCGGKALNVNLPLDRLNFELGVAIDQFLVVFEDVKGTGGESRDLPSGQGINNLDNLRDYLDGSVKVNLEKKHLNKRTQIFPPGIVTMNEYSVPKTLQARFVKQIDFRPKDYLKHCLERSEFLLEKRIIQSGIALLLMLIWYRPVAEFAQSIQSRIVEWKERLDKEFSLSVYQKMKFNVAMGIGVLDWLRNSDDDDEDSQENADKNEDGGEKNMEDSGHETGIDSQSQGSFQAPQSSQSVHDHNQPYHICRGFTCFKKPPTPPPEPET

Row | IC50 (Aminopeptidase N) | SMILES | IC50 (Leucine aminopeptidase) | IC50 (Procathepsin L) | IC50 (Aspartyl aminopeptidase) | further results
1 | 26.5 µM (active) | CCOc1cc(/C=C2\N=C(SC)SC2=O)cc([N+](=O)[O-])c1OC(C)=O | – | – | – | –
2 | 19.2 µM (active) | COc1cc(/C=C2\SC(=S)N(NS(=O)(=O)c3ccc(C)cc3)C2=O)ccc1O | 27.1 µM (active) | – | – | IC50 (Large T antigen): 10.1 µM (active)
3 | – | C[C@]12CC[C@@H]3c4ccc(O)c(O)c4CC[C@H]3[C@@H]1CC[C@@H]2O | – | > 59.6 µM (not active) | 1.22 µM (active) | IC50 [1]: 29 µM (active); IC50 [2]: 29.1 µM (inactive)
4 | – | COc1cc([N+](=O)[O-])ccc1NC(=O)Nn1cnnc1 | – | > 59.6 µM (not active) | 0.353 µM (active) | –
5 | – | COc1cccc2c(SCC(=O)N/N=C/c3ccc(O)c(O)c3)cc(C)nc12 | 16.2 µM (active) | > 59.6 µM (not active) | 2.01 µM (active) | EC50 [3]: > 38 µM (not active); EC50 [4]: 26.3 µM (active); AC50 [5]: 10.4 µM (active)
